Measured values: patent US11306098B2, “Substituted pyrrolo[1,2-a]pyrazines and pyrrolo[1,2-a][1,4]diazepines as TREX1 inhibitors” (VENENUM BIODESIGN, LLC, priority 2019, dated 2022)
Counter-ions that a name gives are not always drawn. Like-named read-outs stand apart in the source and are kept apart here.

Legend:
human TREX1 = human TREX1 (Homo sapiens (Human), UniProt Q9NSU2); assay: TREX1 Exonuclease Assay (human enzyme); type: biochemical; details: human TREX1 0.5 nM, FAM/BHQ1-labeled DNA oligonucleotide
human TREX1, sequence (Q9NSU2 1-242): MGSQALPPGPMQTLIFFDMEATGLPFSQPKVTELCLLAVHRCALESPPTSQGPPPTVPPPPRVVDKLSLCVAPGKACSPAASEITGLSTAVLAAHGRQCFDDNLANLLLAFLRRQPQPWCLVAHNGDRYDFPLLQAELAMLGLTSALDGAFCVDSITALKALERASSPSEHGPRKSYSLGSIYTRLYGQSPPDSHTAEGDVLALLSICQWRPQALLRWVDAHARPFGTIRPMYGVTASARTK
Procedure: (§1) The TREX1 Exonuclease assay is an exemplary in vitro assay for measuring the activity of the TREX1 inhibitors of the present invention. In this assay, TREX1 exonuclease activity was evaluated by measuring the increase in fluorescence resulting from TREX1-catalyzed removal of a quencher from the 3′ end of a FAM-labeled DNA oligonucleotide (5′FAM-CCA CGA GAG CGT-BHQ1-3′). The assay was conducted using Wild Type (WT) human or murine TREX1 enzyme constructs corresponding to amino acids 55-297 of UniProt ID Q9NSU2-1 (SEQ ID NO: 1), or amino acids 1-242 of UniProt ID Q91XB0-1 (SEQ ID NO: 2), respectively. See, e.g., Example A.
(§2) For human TREX1, the nucleotide sequence of the gene construct was codon optimized for expression in the bacterial host. The sequence was incorporated into the pMAL-c5e vector (NEB) downstream of a solubility-promoting MBP (maltose binding protein) fusion partner. The fusion protein product was expressed in E. coli strain BL21 (DE3) (Millipore) and purified in a series of chromatographic steps. Initial steps were conducted using a dextrin sepharose affinity column followed by a Q-sepharose ion exchange column (both GE Healthcare). After the second column the MBP partner was removed by incubation with enterokinase (NEB). Further purification was carried out with the second application of a Q-sepharose column followed by a Superdex 75 (GE Healthcare) size exclusion column. Finally, a heparin sepharose column (GE Healthcare) was applied to remove contaminating nucleotides. Similar methods were used in the preparation of the murine TREX1 enzyme and are described in Example B set forth below.
(§3) To evaluate the effect of compounds on TREX1 activity, test compounds were serially diluted (11-point, 3-fold) from 10 mM stock solutions and delivered to 384-well low-volume assay plates in 80 nL DMSO using an acoustic dispenser. Next, 4 μL of human TREX1 (0.5 nM), or murine TREX1 (1 nM), diluted in assay buffer (20 mM Tris pH 7.5, 5 mM MgCl2, 100 μg/mL BSA, 0.002% Triton X-100, 2 mM DTT), was added to the assay plate. After incubating for 30 minutes, 4 μL of labeled DNA oligonucleotide (500 nM) in assay buffer was added to initiate TREX1 exonuclease activity. The reaction was allowed to proceed for 45 minutes at room temperature prior to the addition of 4 μL of 150 mM EDTA to halt TREX1 activity. Assay plates were equilibrated for an additional 30 minutes and read on an EnVision Plate Reader (Perkin Elmer) to measure fluorescence emission at 535 nm following excitation at 485 nm. Fluorescence was plotted as a function of log molar compound concentration and fit to four-parameter dose-response equation to determine compound IC50.

murine TREX1 = murine TREX1 (Mus musculus (Mouse), UniProt Q91XB0); assay: TREX1 Exonuclease Assay (murine enzyme); type: biochemical; details: murine TREX1 1 nM, FAM/BHQ1-labeled DNA oligonucleotide
murine TREX1, sequence (Q91XB0 1-242): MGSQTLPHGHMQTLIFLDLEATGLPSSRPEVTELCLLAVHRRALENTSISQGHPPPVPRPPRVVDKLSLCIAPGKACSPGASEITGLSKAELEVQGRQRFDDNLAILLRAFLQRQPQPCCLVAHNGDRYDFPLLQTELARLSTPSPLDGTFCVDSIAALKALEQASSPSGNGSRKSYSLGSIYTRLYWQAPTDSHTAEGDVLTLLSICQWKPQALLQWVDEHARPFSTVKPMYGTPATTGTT
Procedure: as §1, §2, §3

cleaved human TREX1 = cleaved human TREX1 (Homo sapiens (Human), UniProt Q9NSU2); assay: TREX1 Thermal Shift Binding Assay (human); details: 100 μM compound, 5 μM TREX1
cleaved human TREX1, sequence (Q9NSU2 1-242): as the sequence (Q9NSU2 1-242) above
Procedure: (§4) Example B is a protein thermal shift assay used to assess the binding of TREX1 inhibitors to TREX1 protein. In this assay, TREX1 protein unfolding with increasing temperature was measured in the presence and absence of TREX1 inhibitors by following the increase in fluorescence of a thiol-reactive dye (e.g BODIPY FL-cystine) as it reacts with exposed TREX1 cysteine residues. The assay was conducted using human (SEQ ID NO: 1), or murine (SEQ ID NO: 2) TREX1 protein constructs.
(§5) The thermal shift assays used recombinant protein corresponding to human (SEQ ID NO: 1) and murine (SEQ ID NO: 2) TREX1. The protein encoding plasmid contained a N-terminal MBP (maltose binding protein) tag followed by the TREX1 coding sequence within the pMAL-c5E vector. The plasmid was transfected into a BL21 (DE3) E. coli expression strain. Protein was purified from the bacterial lysate using an Amylose resin column. The MBP tag was cleaved from the purified protein using recombinant enterokinase (EMD Millipore #69066-3). The cleaved TREX1 protein was further purified on a Q-Sepharose column followed by a heparin column.
(§6) Binding of compounds to both human and murine TREX1 were measured by protein thermal shift assays. (Huynh K, Partch C L. Current Protocols in Protein Science: Analysis of protein stability and ligand interactions by thermal shift assay. Current protocols in protein science/editorial board, John E Coligan. [et al]. 2015; 79:28.9.1-28.9.14. doi:10.1002/0471140864.ps2809s79.). Thermal shift assays were conducted in sealed 96-well PCR plates containing 5 μM TREX1 protein, 100 μM compound, and 2 μM BODIPY FL-cystine (Sigma) in either 20 μL assay buffer (20 mM Tris, 7.5, 5 mM MgCl2, 0.002% Triton X-100) or 20 μL phosphate buffered saline (PBS). Using a RT-qPCR machine (Mx3005P, Stratagene) changes in fluorescence (excitation at 492 nm and emission at 516 nm) were monitored as temperature was increased from 25° C. to 96° C. at a rate of 1° C. every 2 minutes. Tm values were calculated from the first derivative plot of fluorescence intensity versus temperature. The results shown in Table 6 indicate the examples bind to human TREX1 and murine TREX1. ND indicates assay was not done.

cleaved mouse TREX1 = cleaved mouse TREX1 (Mus musculus (Mouse), UniProt Q91XB0); assay: TREX1 Thermal Shift Binding Assay (mouse); details: 100 μM compound, 5 μM TREX1
cleaved mouse TREX1, sequence (Q91XB0 1-242): as the sequence (Q91XB0 1-242) above
Procedure: as §4, §5, §6

[1] = PBS, read-out: Thermal shift cleaved human TREX1, (ΔTm ° C.) PBS
[2] = assay buffer, read-out: Thermal shift cleaved human TREX1, (ΔTm ° C.) Assay buffer
[3] = PBS, read-out: Thermal shift cleaved mouse TREX1, (ΔTm ° C.) PBS
[4] = assay buffer, read-out: Thermal shift cleaved mouse TREX1, (ΔTm ° C.) Assay buffer

| SMILES | IC50 (human TREX1) [nM] | IC50 (murine TREX1) [nM] | ΔTm at 100 µM (cleaved human TREX1; [1]) [°C] | ΔTm at 100 µM (cleaved human TREX1; [2]) [°C] | ΔTm at 100 µM (cleaved mouse TREX1; [3]) [°C] | ΔTm at 100 µM (cleaved mouse TREX1; [4]) [°C] |
| --- | --- | --- | --- | --- | --- | --- |
| N[C@@H]1C[C@H]2C(=O)N([C@H](CCC(=O)O)C(=O)NCc3ccc(C(F)(F)F)cc3)CCC(CCc3ccccc3)N2C1 (single isomer, unassigned) [Example 2B] | < 1000 | < 1000 | > 8 | > 8 | 4 to 8 | 4 to 8 |
| CC(C)C[C@H](C(=O)NCc1ccc(Cl)c(Cl)c1)N1CCC(CCc2ccccc2)N2C[C@H](N)C[C@H]2C1=O (stereo partly drawn) [Example 1, (2R)-2-((8R,9aS)-8-amino-1-oxo-5-phenethylhexahydro-1H-pyrrolo[1,2-a][1,4]diazepin-2(3H)-yl)-N-(3,4-dichlorobenzyl)-4-methylpentanamide.HCl] | – | – | > 8 | > 8 | 4 to 8 | 4 to 8 |
| N[C@@H]1C[C@H]2C(=O)N([C@H](CO)C(=O)NCc3ccc(Cl)c(Cl)c3)CCC(CCc3ccccc3)N2C1 (stereo partly drawn) [Example 3, (2R)-2-((8R,9aS)-8-amino-1-oxo-5-phenethylhexahydro-1H-pyrrolo[1,2-a][1,4]diazepin-2(3H)-yl)-N-(3,4-dichlorobenzyl)-3-hydroxypropanamide.HCl] | – | – | > 8 | > 8 | 4 to 8 | 4 to 8 |
| N[C@@H]1C[C@H]2C(=O)N([C@H](Cc3ccc(O)cc3)C(=O)NCc3ccc(Cl)c(Cl)c3)CCC(CCc3ccccc3)N2C1 (stereo partly shown) [Example 4] | < 1000 | < 1000 | > 8 | > 8 | 4 to 8 | 4 to 8 |
| CC(C)C[C@H](C(=O)N[C@@H](C)c1ccccc1)N1CCC(CCc2ccccc2)N2C[C@H](N)C[C@H]2C1=O (stereo partly shown) [Example 25] | 10000 to 100000 | 10000 to 100000 | – | – | – | – |
| CC(C)C[C@H](C(=O)NCc1cccc(Cl)c1)N1CCC(CCc2ccccc2)N2C[C@H](N)C[C@H]2C1=O (stereo partly shown) [Example 26] | < 1000 | 1000 to 9990 | – | – | – | – |
| CC(C)C[C@H](C(=O)NCc1ccccc1Cl)N1CCC(CCc2ccccc2)N2C[C@H](N)C[C@H]2C1=O (stereo partly shown) [Example 27] | 1000 to 9990 | 10000 to 100000 | – | – | – | – |
| CC(C)C[C@H](C(=O)NCc1cnccn1)N1CCC(CCc2ccccc2)N2C[C@H](N)C[C@H]2C1=O (stereo partly shown) [Example 28] | 1000 to 9990 | 10000 to 100000 | – | – | – | – |
| CC(C)C[C@H](C(=O)NCc1cscn1)N1CCC(CCc2ccccc2)N2C[C@H](N)C[C@H]2C1=O (stereo partly shown) [Example 30] | 1000 to 9990 | 10000 to 100000 | – | – | – | – |
| CC(C)C[C@H](C(=O)NCc1ccc(Cl)cc1Cl)N1CCC(CCc2ccccc2)N2C[C@H](N)C[C@H]2C1=O (stereo partly shown) [Example 31] | < 1000 | 1000 to 9990 | – | – | – | – |
| CC(C)C[C@H](C(=O)NCc1ccc(C#N)cc1)N1CCC(CCc2ccccc2)N2C[C@H](N)C[C@H]2C1=O (stereo partly shown) [Example 32] | 1000 to 9990 | 10000 to 100000 | – | – | – | – |
| CC(C)C[C@H](C(=O)NCc1cc(Cl)cc(Cl)c1)N1CCC(CCc2ccccc2)N2C[C@H](N)C[C@H]2C1=O (stereo partly shown) [Example 33] | < 1000 | 1000 to 9990 | – | – | – | – |
| CC(C)C[C@H](C(=O)NCc1ccc(F)cc1)N1CCC(CCc2ccccc2)N2C[C@H](N)C[C@H]2C1=O (stereo partly shown) [Example 34] | < 1000 | 1000 to 9990 | – | – | – | – |
| CC(C)C[C@H](C(=O)NS(=O)(=O)c1ccccc1)N1CCC(CCc2ccccc2)N2C[C@H](N)C[C@H]2C1=O (stereo partly shown) [Example 35] | 1000 to 9990 | 1000 to 9990 | – | – | – | – |
| CC(C)C[C@H](C(=O)NCCc1ccc(Cl)c(Cl)c1)N1CCC(CCc2ccccc2)N2C[C@H](N)C[C@H]2C1=O (stereo partly shown) [Example 37] | < 1000 | 1000 to 9990 | – | – | – | – |
| N[C@@H]1C[C@H]2C(=O)N([C@H](CCc3nsc(=O)[nH]3)C(=O)NCc3ccc(Cl)c(Cl)c3)CCC(CCc3ccccc3)N2C1 (stereo partly shown) [Example 38] | < 1000 | < 1000 | – | – | – | – |
| CC(C)C[C@H](C(=O)NS(=O)(=O)c1ccc(Cl)c(Cl)c1)N1CCC(CCc2ccccc2)N2C[C@H](N)C[C@H]2C1=O (stereo partly shown) [Example 39] | < 1000 | < 1000 | – | – | – | – |
| CCC[C@H](CNS(=O)(=O)c1ccc(Cl)c(Cl)c1)N1CCC(CCc2ccccc2)N2C[C@H](N)C[C@H]2C1=O (stereo partly shown) [Example 40] | < 1000 | 1000 to 9990 | – | – | – | – |
| CC(C)C[C@H](C(=O)NCc1ccc(Cl)c(Cl)c1)N1CCC(CS(=O)(=O)c2ccccc2)N2C[C@H](N)C[C@H]2C1=O (stereo partly shown) [Example 41] | 1000 to 9990 | 10000 to 100000 | – | – | – | – |
| N#CCC[C@H](C(=O)NCc1ccc(Cl)c(Cl)c1)N1CCC(CCc2ccccc2)N2C[C@H](N)C[C@H]2C1=O (stereo partly shown) [Example 45] | < 1000 | < 1000 | – | – | – | – |
| CC(C)C[C@H](C(=O)NCc1ccc(Cl)cc1)N1CCC(CCc2ccccc2)N2C[C@H](N)C[C@H]2C1=O (stereo partly shown) [Example 46] | < 1000 | 1000 to 9990 | – | – | – | – |
| CC(C)C[C@H](C(=O)NCc1ccc(Cl)c(Cl)c1)N1CCC(CCc2ccccc2)N(CCN)CC1=O (stereo partly shown) [Example 47] | 1000 to 9990 | 10000 to 100000 | – | – | – | – |
| Cc1nnc(CC[C@H](C(=O)NCc2ccc(Cl)c(Cl)c2)N2CCC(CCc3ccccc3)N3C[C@H](N)C[C@H]3C2=O)[nH]1 (stereo partly shown) [Example 48] | < 1000 | < 1000 | – | – | – | – |
